Experimental data published in patent US20070254931A1, “Thiazole Derivatives Having Vap-1 Inhibitory Activity” (Astellas Pharma Inc., priority 2004, published 2007).
Counter-ions that a name gives are not always drawn.

How the values were obtained:
Human plasma SSAO = target: T1, Human plasma SSAO (Homo sapiens, UniProt Q16853); experiment: VAP-1 enzyme (SSAO) activity in human plasma, radiochemical-enzyme assay with 14C-benzylamine; format: biochemical; conditions: human plasma enzyme suspension; pre-incubation 30 min at room temperature; 14C-benzylamine 2×10^−5 mol/l, 37° C., 1 hour; read-out: Inhibitory effect (IC50 values, μM) Human plasma SSAO
T1 construct: The enzyme suspension prepared from blood plasma was pre-incubated with a control compound; from tissue; host or cells: human blood plasma
T1 sequence (Q16853 27-763 limits assumed): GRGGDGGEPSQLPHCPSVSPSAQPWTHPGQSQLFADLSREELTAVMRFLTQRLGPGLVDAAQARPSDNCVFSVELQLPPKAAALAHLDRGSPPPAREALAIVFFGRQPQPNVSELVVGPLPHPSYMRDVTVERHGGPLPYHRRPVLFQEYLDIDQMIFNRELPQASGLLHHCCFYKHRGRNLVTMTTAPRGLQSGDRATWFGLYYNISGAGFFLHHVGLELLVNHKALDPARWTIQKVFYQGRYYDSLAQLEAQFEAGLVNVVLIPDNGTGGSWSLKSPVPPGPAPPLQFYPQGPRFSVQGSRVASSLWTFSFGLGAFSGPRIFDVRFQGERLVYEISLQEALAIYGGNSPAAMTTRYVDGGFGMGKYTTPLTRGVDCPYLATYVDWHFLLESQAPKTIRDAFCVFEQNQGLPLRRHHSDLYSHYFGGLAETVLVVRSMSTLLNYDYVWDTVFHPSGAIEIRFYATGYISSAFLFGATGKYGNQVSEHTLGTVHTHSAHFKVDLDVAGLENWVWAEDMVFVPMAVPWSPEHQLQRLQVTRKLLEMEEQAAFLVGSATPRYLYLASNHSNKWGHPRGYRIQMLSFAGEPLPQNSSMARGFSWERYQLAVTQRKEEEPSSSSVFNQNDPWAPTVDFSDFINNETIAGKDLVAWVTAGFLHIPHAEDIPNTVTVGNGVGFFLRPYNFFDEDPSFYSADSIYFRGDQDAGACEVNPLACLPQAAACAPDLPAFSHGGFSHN
Procedure: VAP-1 enzyme (SSAO) activity in human plasma was determined by a radiochemical-enzyme assay using ^14C-benzylamine as an artificial substrate. The enzyme suspension prepared from blood plasma was pre-incubated with a control compound (Reference Example 1) in 96-well microplate at room temperature for 30 min. The enzyme suspension was then incubated with ^14C-benzylamine (2×10^−5 mol/l final concentration) in a final volume of 50 μl at 37° C. for 1 hour. The enzyme reaction was terminated by adding 2 mol/l (50 μl) citric acid. The oxidized products were directly extracted into a 200 μl toluene scintillator, and its radioactivity was measured by a scintillation spectrometer. Inhibition activity was expressed as IC50 (μmol/l) value.
Test compounds (i.e., the present compounds) inhibited the enzyme activity of human plasma SSAO in comparison with the control compound as shown in Table 1.

Work on `CC(=O)Nc1nc(CCc2ccc(NC(=N)N)cc2)c(CN(C)C(=O)c2ccc(S(C)(=O)=O)cc2)s1` [Production Example 16, N-({2-(acetylamino)-4-[2-(4-{[amino(imino)methyl]amino}phenyl)ethyl]-1,3-thiazol-5-yl}methyl)-N-methyl-4-(methylsulfonyl)benzamide hydrochloride] yielded an IC50 (Human plasma SSAO) of 0.012 µM.

Work on `CC(=O)Nc1nc(CCc2ccc(NC(=N)N)cc2)c(CN2CC[C@@H](C(=O)N(C)C)C2)s1` [Production Example 12, (3R)-1-({2-(acetylamino)-4-[2-(4-{[amino(imino)methyl]amino}phenyl)ethyl]-1,3-thiazol-5-yl}methyl)-N,N-dimethyl-3-pyrrolidinecarboxamide dihydrochloride] yielded an IC50 (Human plasma SSAO) of 0.019 µM.

With `CC(=O)Nc1nc(CCc2ccc(NC(=N)N)cc2)c(CN2CC[C@H](C(=O)N(C)C)C2)s1` [Production Example 14, (3S)-1-({2-(acetylamino)-4-[2-(4-{[amino(imino)methyl]amino}phenyl)ethyl]-1,3-thiazol-5-yl}methyl)-N,N-dimethyl-3-pyrrolidinecarboxamide dihydrochloride] the IC50 (Human plasma SSAO) was 0.014 µM.

Molecule `CC(=O)Nc1nc(CCc2ccc(NC(=N)N)cc2)c(Cc2cccc(S(C)(=O)=O)c2)s1` [Production Example 1, N-{4-[2-(4-{[amino(imino)methyl]amino}phenyl)ethyl]-5-[3-(methylsulfonyl)benzyl]-1,3-thiazol-2-yl}acetamide] has an IC50 (Human plasma SSAO) of 0.016 µM and a melting point of 212 to 213.5 °C.

Work on `CC(=O)Nc1nc(CCc2ccc(CCNC(=N)N)cc2)cs1` [Production Example 25, N-(4-{2-[4-(2-{[amino(imino)methyl]amino}ethyl)phenyl]ethyl}-1,3-thiazol-2-yl)acetamide] yielded an IC50 (Human plasma SSAO) of 0.0057 µM.

With `CC(=O)Nc1nc(CCc2ccc(CC(=O)NC(=N)N)cc2)cs1` [Production Example 9, 2-(4-{2-[2-(acetylamino)-1,3-thiazol-4-yl]ethyl}phenyl)-N-[amino(imino)methyl]acetamide] the IC50 (Human plasma SSAO) was 0.0026 µM.

With `CC(=O)Nc1nc(CCc2ccc(NC(=N)N)cc2)cs1` [Reference Example 1, N-{4-[2-(4-{[amino(imino)methyl]amino}phenyl)ethyl]-1,3-thiazol-2-yl}acetamide, reference compound] the IC50 (Human plasma SSAO) was 0.033 µM.

In the case of `CC(=O)Nc1nc(CCc2ccc(NC(=N)N)cc2)c(CN(C)C(=O)c2ccc([N+](=O)[O-])cc2)s1` [Production Example 19, N-({2-(acetylamino)-4-[2-(4-{[amino(imino)methyl]amino}phenyl)ethyl]-1,3-thiazol-5-yl}methyl)-N-methyl-4-nitrobenzamide hydrochloride], the IC50 (Human plasma SSAO) is reported as 0.032 µM.

`CC(=O)Nc1nc(-c2ccc(CCCCNC(=N)N)cc2)cs1` [Production Example 7, N-{4-[4-(4-{[amino(imino)methyl]amino}butyl)phenyl]-1,3-thiazol-2-yl}acetamide hydrochloride] showed an IC50 (Human plasma SSAO) of 0.015 µM.

In the case of `CC(=O)Nc1nc(CCc2ccc(NC(=N)N)cc2)c(Cc2ccc(S(N)(=O)=O)cc2)s1` [Production Example 3, N-{4-[2-(4-{[amino(imino)methyl]amino}phenyl)ethyl]-5-[4-(aminosulfonyl)benzyl]-1,3-thiazol-2-yl}acetamide hydrochloride], the IC50 (Human plasma SSAO) is reported as 0.0045 µM.

`CC(=O)Nc1nc(-c2ccc(CCNC(=N)N)cc2)c(Cc2ccc(S(C)(=O)=O)cc2)s1.Cl` showed a melting point of 217 to 218.5 °C.
